Source: PubChem BioAssay AID1645866 (Buhrlage Lab, Dana-Farber Cancer Institute and Novartis …, 2021)
Active and inactive are the calls of the source.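 How the source made its calls: active means in confirmatory dose-response testing, peak deubiquitinase inhibition of 30% or more; inactive means the rest.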

These compounds were tested against Ubiquitin carboxyl-terminal hydrolase 28 (Homo sapiens) (UniProt Q96RU2) (assay: Concentration-response biochemical assay confirming initial hits as inhibitors of ubiquitin-specific protease 28 (AID 1645866)). Conditions: purified USP28, ubiquitin-rhodamine fluorescence, 30 min.
Ubiquitin carboxyl-terminal hydrolase 28 (Homo sapiens), sequence (Q96RU2 whole entry, looked up): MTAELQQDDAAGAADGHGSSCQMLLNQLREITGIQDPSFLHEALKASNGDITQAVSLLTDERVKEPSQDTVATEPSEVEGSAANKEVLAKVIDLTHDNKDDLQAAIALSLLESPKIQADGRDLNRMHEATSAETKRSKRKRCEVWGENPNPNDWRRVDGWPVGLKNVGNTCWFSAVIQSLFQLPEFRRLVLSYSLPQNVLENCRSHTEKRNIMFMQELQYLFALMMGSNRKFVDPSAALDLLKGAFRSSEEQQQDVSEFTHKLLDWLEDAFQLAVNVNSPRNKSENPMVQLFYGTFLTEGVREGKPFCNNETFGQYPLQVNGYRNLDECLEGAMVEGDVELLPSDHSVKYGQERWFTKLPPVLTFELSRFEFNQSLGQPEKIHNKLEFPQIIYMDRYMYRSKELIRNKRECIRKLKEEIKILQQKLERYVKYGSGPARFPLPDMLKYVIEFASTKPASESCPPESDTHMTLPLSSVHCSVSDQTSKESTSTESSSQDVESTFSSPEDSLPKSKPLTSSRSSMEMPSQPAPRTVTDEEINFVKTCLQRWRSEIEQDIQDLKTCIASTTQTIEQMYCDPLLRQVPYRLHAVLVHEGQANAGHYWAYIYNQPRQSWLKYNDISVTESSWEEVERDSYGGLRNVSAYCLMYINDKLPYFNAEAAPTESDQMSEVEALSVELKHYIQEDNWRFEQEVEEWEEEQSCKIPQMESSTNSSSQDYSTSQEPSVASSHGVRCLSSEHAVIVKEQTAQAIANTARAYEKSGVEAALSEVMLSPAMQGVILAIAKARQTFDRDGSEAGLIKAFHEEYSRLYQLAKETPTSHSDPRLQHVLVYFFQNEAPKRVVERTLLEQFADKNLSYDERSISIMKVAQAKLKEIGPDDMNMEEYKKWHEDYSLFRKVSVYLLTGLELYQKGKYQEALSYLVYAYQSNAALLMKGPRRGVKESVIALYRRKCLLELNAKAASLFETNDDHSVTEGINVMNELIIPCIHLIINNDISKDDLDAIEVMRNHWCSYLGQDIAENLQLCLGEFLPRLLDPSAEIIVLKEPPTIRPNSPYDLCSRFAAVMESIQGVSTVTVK

**Q.** Cc1ccc(C(=O)CCC(=O)OCC(=O)c2ccc3[nH]c(=O)[nH]c3c2)cc1 was tested. Which IC50 did it give?
**A.** 24.1 µM

**Q.** CCc1cccc2c(C(=O)COc3ccc(C#N)cc3)c[nH]c12 was tested. Which IC50 did it give?
**A.** 15.1 µM

**Q.** For COc1ccc(C2/C(=C(\O)c3ccccc3)C(=O)C(=O)N2c2nc3ccc(F)cc3s2)cc1 (stereo unspecified), which IC50 is on record?
**A.** 21.6 µM

**Q.** O=C(CCc1nnc2n(Cc3ccc(F)cc3)c(=O)c3ccccc3n12)N1CCN(c2ccccn2)CC1 was tested. Which IC50 did it give?
**A.** > 50 µM (inactive)

**Q.** How did the IC50 turn out when Cc1cc(=O)n(CC(=O)Nc2ccccc2F)c(Nc2ccc(F)cc2)n1 was run?
**A.** 14.3 µM

**Q.** Which IC50 does the source give for COc1ccc(CC(=O)Nc2ccc3nc(N4CCOCC4)cc(C)c3c2)cc1 here?
**A.** 26 µM

**Q.** For Nc1c(C(=O)NCc2ccc3c(c2)OCO3)nnn1Cc1ccc(Br)cc1F, which IC50 is on record?
**A.** 5.37 µM

**Q.** COCCCNC(=O)Cn1c(=O)n(Cc2ccc(C(=O)NCc3ccccc3OC)cc2)c(=O)c2ccccc21 was tested. Which IC50 did it give?
**A.** > 50 µM (inactive)

**Q.** O=C(Nc1ccc(Oc2cccc3cccnc23)cc1)c1cccs1 was tested. Which IC50 did it give?
**A.** 0.531 µM

**Q.** How did the IC50 turn out when COc1ccc(C(=O)NCC(c2ccc3c(c2)CCCN3C)N2CCCC2)cc1 (stereo unspecified) was run?
**A.** > 50 µM (inactive)

**Q.** Fc1ccccc1Cc1nc(-c2ccc3nncn3c2)no1 was tested. Which IC50 did it give?
**A.** 9.69 µM

**Q.** Which IC50 does the source give for COc1ccc(-c2nc(Cn3nnc(C(=O)Nc4ccc(C)c(C)c4)c3N)c(C)o2)cc1 here?
**A.** 2.12 µM

**Q.** Which IC50 does the source give for c1ccc2c(-c3nc(C4CC4)no3)nnc(NCc3ccncc3)c2c1 here?
**A.** 35.9 µM

**Q.** Cc1sc2ncnc(OCc3ccc(F)cc3Cl)c2c1C was tested. Which IC50 did it give?
**A.** 0.436 µM

**Q.** How did the IC50 turn out when Cc1cccc(C(=O)NCc2nc3ccccc3n2Cc2ccccc2C)c1 was run?
**A.** > 50 µM (inactive)

**Q.** With COc1ccc(CC(=O)Nc2nc(-c3ccco3)c(-c3ccco3)s2)cc1 as the compound, how does the IC50 read?
**A.** > 5 µM (inactive)

**Q.** For COc1ccc(CCNc2c(-c3ccccc3O)nc3cnccn23)cc1OC, which IC50 is on record?
**A.** > 50 µM (inactive)

**Q.** How did the IC50 turn out when CCOc1ccc(NS(=O)(=O)c2ccc(NC(=O)Nc3ccccc3)cc2)cc1 was run?
**A.** 16 µM

**Q.** With CC1CCN(S(=O)(=O)c2ccc3[nH]cc(C(=O)NCc4ccco4)c(=O)c3c2)CC1 as the compound, how does the IC50 read?
**A.** > 50 µM (inactive)

**Q.** How did the IC50 turn out when CCn1cc(-c2nc(-c3ccccc3)no2)c(=O)c2cc(F)ccc21 was run?
**A.** 7.65 µM

**Q.** With Cc1cc(C(=O)N2CCOC3(CC=CCN(CCc4ccccc4)C3=O)C2)n2nccc2n1 (stereo unspecified) as the compound, how does the IC50 read?
**A.** > 50 µM (inactive)

**Q.** For CCCc1nc2c(sc3nc4c(cc32)COC(C)(C)C4)c(=O)n1CC(=O)Nc1ccccc1C, which IC50 is on record?
**A.** 21.9 µM

**Q.** Which IC50 does the source give for COc1ccc(NC(=O)c2nnn(-c3ccccc3C)c2C)cc1OC here?
**A.** 4.78 µM

**Q.** O=C(Nc1ccc2c(c1)N(C(=O)C1CCCC1)CC2)c1c(F)cccc1F was tested. Which IC50 did it give?
**A.** 0.15 µM

**Q.** CNC(=O)c1c2n(c3ncccc13)CCN(S(=O)(=O)c1ccc(-c3ccccc3)cc1)C2 was tested. Which IC50 did it give?
**A.** 10.2 µM

**Q.** Which IC50 does the source give for COc1ccc(/C=C/C(=O)N2CCc3ccccc32)cc1S(=O)(=O)N1CCOCC1 here?
**A.** > 50 µM (inactive)

**Q.** Which IC50 does the source give for c1csc(CCN2CCc3nc4cccnc4cc3C2)c1 here?
**A.** > 50 µM (inactive)

**Q.** With O=C(c1ccco1)N1CCC2(CC1)CC1(CO2)Nc2ccccc2-n2cccc21 (stereo unspecified) as the compound, how does the IC50 read?
**A.** 34.4 µM

**Q.** How did the IC50 turn out when COc1cc(OC)cc(C(=O)Nc2cnc(-c3ccccc3)nc2)c1 was run?
**A.** > 50 µM (inactive)

**Q.** How did the IC50 turn out when Cc1nnc(Sc2cc(C(=O)NCCN3CCCC3)c3ccccc3n2)s1 was run?
**A.** > 50 µM (inactive)

**Q.** For Cc1ccc(S(=O)(=O)c2cnc(SCC(=O)Nc3ccc(Cl)cc3)nc2N)cc1C, which IC50 is on record?
**A.** 39.5 µM

**Q.** CCOC(=O)c1sc2c(c1C)c(=O)n(Cc1ccccc1)c(=O)n2CC(N)=O was tested. Which IC50 did it give?
**A.** 22.2 µM

**Q.** Which IC50 does the source give for Cc1cc(C(=O)Nc2ccc3c(c2)OCCO3)no1 here?
**A.** 9.47 µM

**Q.** How did the IC50 turn out when O=C(Nc1ccc(F)c(Cl)c1)c1ccc(N2CCCCS2(=O)=O)cc1Cl was run?
**A.** 30.5 µM

**Q.** O=S1(=O)CCN(Cc2ccccc2)c2c(F)nc(N3CCCCC3)c(F)c21 was tested. Which IC50 did it give?
**A.** > 50 µM (inactive)

**Q.** With CC1=C(c2ccc(F)cc2)S(=O)(=O)NC1=NCC(=O)Nc1cccc(F)c1 as the compound, how does the IC50 read?
**A.** 48.7 µM

**Q.** With O=C1COc2ccccc2N1Cc1noc(-c2ccccc2)n1 as the compound, how does the IC50 read?
**A.** 4.6 µM

**Q.** With c1ccc(-n2nnc(-c3noc(-c4cccnc4)n3)c2-c2ccncc2)cc1 as the compound, how does the IC50 read?
**A.** 21 µM

**Q.** With COc1ccc(CCNC(=O)c2cc3ccccc3s2)cc1OC as the compound, how does the IC50 read?
**A.** 2.07 µM

**Q.** Which IC50 does the source give for CCOC(=O)c1c(C)oc2nc(CSc3ccccc3)[nH]c(=O)c12 here?
**A.** 17 µM

**Q.** For CC(=O)N1CCc2cc(CNC(=O)Nc3cc(C)ccc3C)ccc21, which IC50 is on record?
**A.** 46.7 µM
